Read-outs that look alike come from different tables or passages of the source.
Legend:
[1] = Phase 1 study of intramuscular injection in healthy human subjects (Example 8); assay type: in vivo; details: human, in vivo
Protocol: A phase 1 double-blind, placebo-controlled, dose-ranging study was conducted to evaluate the safety, tolerability, and pharmacokinetics of Compound A administered by intramuscular injection (IM) in healthy human subjects. The study was conducted in two parts. In part 1, subjects received a single dose of Compound A at doses from 0.3 mg/kg to 10 mg/kg via IM administration. Additionally, the effect of lidocaine administration (co-administered with Compound A at a dose of 4 mg/kg) on alleviation of pain associated with injection was also evaluated. In part 2, subjects received Compound A for 7 days (q.d.) at doses of 2.5 mg/kg/day, 5 mg/kg/day or 10 mg/kg/day via IM administration. 50 subjects received single doses of Compound A in part 1 (12 subjects received placebo) and 23 subjects received multiple doses of Compound A in part 2 (6 subjects received placebo). All planned cohorts were completed.
Eligible subjects were adults of either sex ages 18 to 50. […]
The plasma concentration time profile of Compound A was determined for each subject in part 2 (results expressed as ng/ml Compound A). Blood samples were taken on Day 1 prior to administration of the first dose and at 1, 2, 3, 4, 6, 8, 10, 12, 16 and 24 hours after administration of the first dose of Compound A and on Day 7 prior to administration of the last dose of Compound A and at 1, 2, 3, 4, 6, 8, 10, 12, 16, 24, 36, 48, 72 and 96 hours after administration of the last dose of Compound A. Plasma samples were obtained from the blood samples and the concentration of Compound A determined.

Cl.Nc1ncnc2c([C@@H]3N[C@H](CO)[C@@H](O)[C@H]3O)c[nH]c12 [Compound A]
clinically significant laboratory abnormalities [1]: no clinically significant laboratory abnormalities occurred
exposure vs dose [1]: dose-proportional and linear with increasing dose
plasma PK profile on co-administration of lidocaine ([1]; 4 mg/kg): without altering the plasma PK profile
plasma viremia through day 28 post-infection (Zika virus PRVABC-59; Group 1: 200 mg/kg split dose day 0 (+90 min), 25 mg/kg b.i.d. days 1-9, IM, n=5): did not develop detectable viremia
Zika virus RNA in CSF, saliva and urine (Zika virus PRVABC-59; Group 1, FIG. 13A): only sporadically detectable Zika virus RNA
magnitude of viremia in viremic animals (Zika virus PRVABC-59; Group 2: 200 mg/kg split dose day 0 only, IM): significantly reduced as compared to control
animals with detectable plasma viremia (Zika virus PRVABC-59; Group 2: 200 mg/kg split dose day 0 only, IM, n=5): only two animals from this group showing viremia
Zika virus RNA in CSF, saliva and urine (Zika virus PRVABC-59; Group 2, FIG. 13B): only sporadically detectable Zika virus RNA
tolerability (Zika virus PRVABC-59; IM, Groups 1 and 2): well-tolerated

Reference: patent publication US11975003B2, “Methods and compositions for treatment of Zika virus infection” (priority 2016, dated 2024)
